For data set [1], the system named is M. tuberculosis wild-type strain. The data set is described as follows: MIC against wild-type M. tuberculosis. The class given is cell-based, Mycobacterium tuberculosis. The conditions noted are these: concentration required to inhibit growth by 90%, 5 days culture; for MIC: Mycobacterium tuberculosis, 120 h, read-out: MIC Wild type.
Another data set concerns RAW 264.7 macrophages. The data set is described as follows: Cytotoxicity against infected macrophages. The class given is cell-based, murine. The conditions noted are these: Mus musculus; infected RAW264:7 cells, 72 h; read-out: IC50 Macrophage. The protocol: (§1) Murine RAW 264.7 macrophages (ATCC TIB-71) were infected with M. tuberculosis DsRed (DREAM8) ([29]) as described at a multiplicity of infection of 1 for 24 h, washed, harvested, and dispensed into 384-well plates ([30]). Infected macrophages were exposed to compounds for 72 h; cell nuclei were stained with SYBR green I. Plates were imaged with an ImageXpress Micro High Content Screening System (Molecular Devices) using a ×4 objective and FITC and Texas Red channels. MetaXpress was used to determine the integrated intensity of bacteria or macrophages. […] Isoniazid and staurosporine controls (maximum inhibition) and dose responses were included on every plate.

The subject of data set [2] is intracellular M. tuberculosis (MTB) in RAW 264.7 macrophages. In words: Activity against intracellular M. tuberculosis in macrophages (high-content microscopy). The class given is cell-based. The conditions noted are these: Mycobacterium tuberculosis, RAW264.7, 72 h, intracellular M. tuberculosis in RAW 264.7 macrophages. The protocol: as §1
The test system of data set [3] is M. tuberculosis strain under expressing LepB (LepB-UE). In words: microbe, parasite or virus in culture. The class given is cell-based, Mycobacterium tuberculosis. As to conditions: for MIC: Mycobacterium tuberculosis, 120 h.
The next data set has as its system HepG2 cells. In words: HepG2 cytotoxicity. The class given is cell-based, human. The conditions noted are these: 3 days exposure, CellTiter-Glo. The protocol:
HepG2 cells were used to measure eukaryotic cytotoxicity. Viability of HepG2 was measured using CellTiter-Glo reagent (Promega) after 3 days of exposure to compounds. […] Staurosporine controls (maximum inhibition) and a staurosporine dose response were included on every plate.
Background: ATP-based viability assays read luminescence as a measure of living cells.

In data set [4] the test system is replicating M. tuberculosis. In words: Kill kinetics, replicating bacteria. As to conditions: aerobic growth.
Data set [5] relates to nonreplicating M. tuberculosis. In words: Kill kinetics, nonreplicating (nutrient starved) bacteria. As to conditions: nutrient starvation, PBS-tyloxapol. The class given is cell-based, Mycobacterium tuberculosis.
The target of another data set is CYP2C9 (Homo sapiens, UniProt P11712). In words: biochemical. The protocol: (§2) Table S4. Inhibition of cytochrome P450s.
CYP2C9, sequence (P11712 whole entry, canonical isoform): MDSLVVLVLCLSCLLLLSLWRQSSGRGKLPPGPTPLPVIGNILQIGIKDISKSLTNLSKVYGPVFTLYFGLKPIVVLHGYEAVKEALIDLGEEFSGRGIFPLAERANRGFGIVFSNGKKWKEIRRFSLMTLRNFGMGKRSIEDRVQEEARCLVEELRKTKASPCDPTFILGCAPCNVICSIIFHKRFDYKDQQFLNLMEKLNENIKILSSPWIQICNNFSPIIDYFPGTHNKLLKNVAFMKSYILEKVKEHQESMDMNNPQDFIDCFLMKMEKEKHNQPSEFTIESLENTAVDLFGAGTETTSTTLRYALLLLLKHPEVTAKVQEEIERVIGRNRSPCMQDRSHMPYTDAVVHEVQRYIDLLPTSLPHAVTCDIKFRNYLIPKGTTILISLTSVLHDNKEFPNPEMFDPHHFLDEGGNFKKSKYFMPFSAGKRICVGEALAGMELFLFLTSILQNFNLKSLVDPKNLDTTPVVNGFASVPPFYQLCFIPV
(§3) Compounds were tested for inhibition of P450s using the enzyme substrate pairs and conditions noted. IC50s (µM) were calculated. Control P450 inhibitors were included for each isoform. […]
(§4) Serial dilutions of a 10 mM stock solution were prepared in acetonitrile:DMSO (9:1). The final DMSO concentration was < 0.2%. Compounds were incubated with human liver microsomes in the presence of 2 mM NADPH in 100 mM potassium phosphate (pH 7.4) containing 5 mM magnesium chloride and a probe substrate, in a 200 µl assay final volume in duplicate. The probe substrate concentrations including bupropion (CYP2B6), amodiaquine (CYP2C8), tolbutamide (CYP2C9), mephenytoin (CYP2C19), dextromethorphan (CYP2D6) and midazolam/testosterone […]
(§5) After incubation at 37 °C, reactions were terminated by addition of methanol containing internal standard (propranolol) for analytical quantification. The quenched samples were kept on ice for 10 min and centrifuged at 4 °C for 10 min. The supernatant was removed and the probe substrate metabolite was analyzed by LC-MS/MS (Agilent Technologies Triple Quad LC/MS). A decrease in the formation of the metabolite compared to vehicle control

Data set [6] addresses SPase activity in M. tuberculosis H37Rv cell membrane fractions (Mycobacterium tuberculosis, UniProt P9WKA1). In words: Inhibition of secretion (SPase activity) in membrane fractions. The class given is biochemical. As to conditions: fluorogenic peptide substrate 2 μM; 4 h, 37 °C.
For another data set, the target named is T1, CYP2B6 (Homo sapiens, UniProt P20813).
T1 sequence (P20813 1-491): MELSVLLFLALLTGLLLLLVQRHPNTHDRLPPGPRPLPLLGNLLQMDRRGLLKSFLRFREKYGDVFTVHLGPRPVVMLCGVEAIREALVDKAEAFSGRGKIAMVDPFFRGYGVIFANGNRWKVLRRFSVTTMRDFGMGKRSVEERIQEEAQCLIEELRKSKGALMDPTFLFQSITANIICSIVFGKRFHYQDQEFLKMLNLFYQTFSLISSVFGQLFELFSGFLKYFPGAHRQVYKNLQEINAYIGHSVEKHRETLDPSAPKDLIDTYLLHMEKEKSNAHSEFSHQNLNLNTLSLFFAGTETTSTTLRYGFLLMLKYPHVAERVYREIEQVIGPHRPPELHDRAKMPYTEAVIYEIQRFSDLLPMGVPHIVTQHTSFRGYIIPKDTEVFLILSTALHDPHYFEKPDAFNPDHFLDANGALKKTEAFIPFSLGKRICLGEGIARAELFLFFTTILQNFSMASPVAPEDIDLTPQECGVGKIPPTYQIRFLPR
The data set is described as follows: Cytochrome P450 inhibition. The protocol:
as §2
(§6) Compounds were tested for inhibition of P450s using the enzyme substrate pairs and conditions noted. IC50s (µM) were calculated. Control P450 inhibitors were included for each isoform.
(§7) For each compound, the analytical method was developed as follows. Analyte signal was optimized for each compound by ESI positive or negative ionization mode. An MS2 scan or an SIM scan was used to optimize fragmenter voltage and a product ion analysis was used to identify the best fragment for analysis. The collision energy was optimized using a product ion or MRM scan. An ionization ranking was assigned indicating the compound’s ease of ionization. Samples […]
(§8) 1200 HPLC and a CTC PAL chilled autosampler, all controlled by MassHunter software (Agilent).
(§9) After separation on a C18 reverse phase HPLC column (Agilent Zorbax StableBond 3.5µm, 2.1 x 30 mm) using an acetonitrile -water gradient system, peaks were analyzed by mass spectrometry (MS) using ESI ionization in MRM mode.
(§10) (1 picture or pasted object on this page, not shown here)
as §4, §5

The next data set deals with CYP2D6 (Homo sapiens, UniProt P10635). In words: biochemical. The protocol:
as §2, §3, §8, §9, §4, §5

The next data set addresses T2, CYP2C8 (Homo sapiens, UniProt P10632).
T2 sequence (P10632 1-490): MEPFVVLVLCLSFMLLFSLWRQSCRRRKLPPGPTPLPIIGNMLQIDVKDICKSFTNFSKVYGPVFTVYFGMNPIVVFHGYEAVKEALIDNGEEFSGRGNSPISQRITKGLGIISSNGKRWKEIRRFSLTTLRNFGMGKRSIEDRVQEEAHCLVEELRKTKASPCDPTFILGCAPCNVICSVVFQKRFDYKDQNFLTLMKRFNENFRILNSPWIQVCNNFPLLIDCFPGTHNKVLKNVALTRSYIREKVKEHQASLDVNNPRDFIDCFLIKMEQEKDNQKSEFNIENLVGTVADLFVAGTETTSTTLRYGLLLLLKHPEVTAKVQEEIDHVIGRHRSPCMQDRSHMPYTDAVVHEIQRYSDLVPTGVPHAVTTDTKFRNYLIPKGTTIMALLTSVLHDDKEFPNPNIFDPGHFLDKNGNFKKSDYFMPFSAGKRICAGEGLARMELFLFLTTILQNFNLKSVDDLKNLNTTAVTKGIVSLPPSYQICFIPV
The data set is described as follows: biochemical. The protocol: as §2, §6, §7, §8, §9, §10, §4, §5

The next data set concerns the target CYP2C19 (Homo sapiens, UniProt P33261). The data set is described as follows: biochemical. The protocol: as §2, §6, §7, §8, §9, §10, §4, §5
Another data set concerns the target CYP3A4 (Homo sapiens, UniProt P08684). In words: Cytochrome P450 inhibition. The class given is in vitro ADME. As to conditions: liver microsomes. The protocol:
as §2, §6, §7, §8, §9, §10, §4, §5
On the technique in general: Liver microsomes are vesicles of endoplasmic reticulum, rich in cytochrome P450 enzymes.

The nature of data set [7]: Plasma protein binding (Rapid Equilibrium Dialysis). The class given is in vitro ADME, human. As to conditions: human; for fraction unbound at 4 h, 5 µM: plasma. The protocol: Molecule fraction fraction Post-Assay
Table S5. Plasma protein binding
Protein binding was measured in human plasma using Rapid Equilibrium Dialysis (RED) devices (Pierce) according to the manufacturers’ instructions; 5 µM compounds in plasma were dialysed against PBS for 4 h at 37C. Compounds were detected by LC-MS/MS in plasma and PBS
(In general: In equilibrium dialysis free small molecules cross a membrane that holds back macromolecules.)

The nature of another data set: in vitro. As to conditions: human. The protocol:
(§11) Permeability was measured across Caco-2 cells cultured in a Millipore 96-well Caco-2 plate. For apical to basolateral (A→B) permeability, 10 μM compound was added to the apical (A) side and amount of permeation was determined on the basolateral (B) side; for basolateral to apical (B→A) permeability, the compound was added to the B side and the amount of permeation was determine on the A side. Time points were taken at 2 h.
(§12) Table S2. Permeability. Permeability was measured using Caco-2 cells after 1 and 2 hours incubation with compound. (A→B) is Apical to Basolateral; (B→A) is Basolateral to Apical. Data is expressed as permeability (10-6 cm s-1). dQ/dt is rate of permeation, C0 is initial concentration […]
(§13) Article Duration direction value replicate replicate mean recovery

The subject of the next data set is Caco-2 cells. In words: Caco-2 permeability. As to conditions: for recovery: human, 10 μM. The protocol: as §11, §12, §13
The nature of data set [8]: Microsomal metabolic stability. The conditions noted are these: human, pH 7.4. The protocol:
as §11
Table S3. Metabolic stability. Metabolic stability was measured using human liver microsomes. […]

In brackets after ≈: the same amount, converted by molar mass. Bounds are passed on as bounds.

CYP3A4, sequence (P08684 2-503): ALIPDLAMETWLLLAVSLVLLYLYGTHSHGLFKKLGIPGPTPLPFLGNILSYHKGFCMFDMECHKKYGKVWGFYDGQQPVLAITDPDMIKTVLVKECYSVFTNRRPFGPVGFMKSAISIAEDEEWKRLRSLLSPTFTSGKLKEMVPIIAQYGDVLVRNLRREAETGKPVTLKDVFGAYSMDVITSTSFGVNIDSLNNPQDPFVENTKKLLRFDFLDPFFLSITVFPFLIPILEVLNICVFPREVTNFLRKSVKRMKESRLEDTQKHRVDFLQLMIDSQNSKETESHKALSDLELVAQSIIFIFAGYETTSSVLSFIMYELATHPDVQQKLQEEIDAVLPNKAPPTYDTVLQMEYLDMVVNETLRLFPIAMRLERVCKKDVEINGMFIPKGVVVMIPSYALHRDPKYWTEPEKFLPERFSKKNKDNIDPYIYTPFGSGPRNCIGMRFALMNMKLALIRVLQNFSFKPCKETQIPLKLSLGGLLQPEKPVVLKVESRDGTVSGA
CYP2D6, sequence (P10635 whole entry): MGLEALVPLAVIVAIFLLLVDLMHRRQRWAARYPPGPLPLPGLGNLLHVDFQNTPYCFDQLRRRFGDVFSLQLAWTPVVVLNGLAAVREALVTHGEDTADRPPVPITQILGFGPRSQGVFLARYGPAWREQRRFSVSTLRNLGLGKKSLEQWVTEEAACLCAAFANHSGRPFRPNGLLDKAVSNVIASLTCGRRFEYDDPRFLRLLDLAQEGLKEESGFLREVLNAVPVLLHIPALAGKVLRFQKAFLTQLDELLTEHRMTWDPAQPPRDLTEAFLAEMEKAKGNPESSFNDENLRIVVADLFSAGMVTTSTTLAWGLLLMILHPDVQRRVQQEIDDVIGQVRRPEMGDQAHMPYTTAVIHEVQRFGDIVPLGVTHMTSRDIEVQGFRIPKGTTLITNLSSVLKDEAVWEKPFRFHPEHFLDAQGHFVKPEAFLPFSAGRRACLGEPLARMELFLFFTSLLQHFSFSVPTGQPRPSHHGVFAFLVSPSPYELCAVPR
CYP2C19, sequence (P33261 whole entry): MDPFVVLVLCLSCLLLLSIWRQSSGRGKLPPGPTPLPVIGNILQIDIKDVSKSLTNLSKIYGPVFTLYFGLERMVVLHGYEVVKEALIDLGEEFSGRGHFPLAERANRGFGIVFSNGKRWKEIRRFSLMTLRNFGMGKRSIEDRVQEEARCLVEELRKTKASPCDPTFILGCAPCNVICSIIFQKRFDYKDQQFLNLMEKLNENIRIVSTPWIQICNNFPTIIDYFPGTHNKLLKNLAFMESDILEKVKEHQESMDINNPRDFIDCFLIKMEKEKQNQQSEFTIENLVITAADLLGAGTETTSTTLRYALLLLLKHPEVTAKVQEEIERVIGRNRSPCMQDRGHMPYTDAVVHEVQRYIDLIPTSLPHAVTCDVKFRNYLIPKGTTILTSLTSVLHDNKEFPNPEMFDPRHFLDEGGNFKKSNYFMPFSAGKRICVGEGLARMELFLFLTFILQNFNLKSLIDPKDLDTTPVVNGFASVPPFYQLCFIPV
SPase activity in M. tuberculosis H37Rv cell membrane fractions, sequence (P9WKA1 whole entry): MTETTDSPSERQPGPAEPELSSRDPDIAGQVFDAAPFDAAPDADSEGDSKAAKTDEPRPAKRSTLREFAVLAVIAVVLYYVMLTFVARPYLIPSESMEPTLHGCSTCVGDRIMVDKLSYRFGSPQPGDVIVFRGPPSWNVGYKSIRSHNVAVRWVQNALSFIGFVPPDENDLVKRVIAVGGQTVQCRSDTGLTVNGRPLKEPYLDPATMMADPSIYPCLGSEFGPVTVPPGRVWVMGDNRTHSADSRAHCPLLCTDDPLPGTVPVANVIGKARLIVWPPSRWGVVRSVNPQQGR

Broadly, the IC50 is the concentration that inhibits the measured activity by half. Turning to `CCCNC(=S)Nc1nc2c(Cl)cccc2s1` [Molecule 31, 1-(4-chlorobenzo[d]thiazol-2-yl)-3-propyl thiourea], the MIC in data set [1] is over 100 µM; in data set [3] it was 14 µM (≈ 4 µg/mL). The IC50 in the data set on RAW 264.7 macrophages is over 100 µM; in data set [2] it was 11 ± 2.2 µM; in the data set with HepG2 cells (Homo sapiens, HepG2, 72 h) it was over 100 µM. Moreover, in data set [3], the “MIC LepB-UE” value worked out at 14 ± 2.0 µM (≈ 4 µg/mL).
Take `Cc1coc(NC(=S)NCC(C)C)n1` [Molecule 29, 1-isobutyl-3-(4-methyloxazol-2-yl)thiourea]: the values for the MIC in data set [1] and in [3] were 20 to 40 µM (≈ 4.27 to 8.53 µg/mL) and 12 to 21 µM (≈ 2.56 to 4.48 µg/mL), respectively. In addition, in [1], the “MIC Wild type” value amounted to 20 ± 23 µM (≈ 4.27 µg/mL). The “concentration with bactericidal activity (defined as 3 log kill)” value in data set [4] amounted to 27.5 μM. The “concentration giving sterilization of nonreplicating organisms” value in data set [5] worked out at 100 µM. Besides, the IC50 was 8.1 ± 1.6 µM in the data set on RAW 264.7 macrophages; 27 ± 6 µM with HepG2 cells; 27 to 78 µM with HepG2 cells (Homo sapiens, HepG2, 72 h). Further, the “MIC LepB-UE” value in data set [3] is 12 ± 1.0 µM (≈ 2.56 µg/mL).
As usually defined, the fraction unbound is free concentration divided by total concentration. Broadly, the Papp A→B is how fast a substance crosses the layer from the apical side. Lower therefore signals slow passage. The term Papp B→A denotes how fast a substance crosses the layer from the basolateral side. As usually defined, the efflux ratio is a quotient of directional permeabilities that is used to spot active efflux. A word on the half-life: it is how long it takes for the measured level to halve. Low readings indicate rapid decline, high ones slow decline. As a reminder, the microsomal CLint is the capacity of the preparation to metabolise the compound, expressed as a volume cleared per time. The low end stands for slow turnover, the high end for rapid turnover. On to `CCCCNC(=S)Nc1nccs1` [Molecule 14, 1-butyl-3-(thiazol-2-yl)thiourea], for which the MIC in data set [1] was found to be 34 µM (≈ 7.32 µg/mL); in data set [3], 41 µM (≈ 8.83 µg/mL). The “MIC Wild type” value in [1] amounted to 34 ± 3.0 µM (≈ 7.32 µg/mL). Moreover, the IC50 on CYP2C9 is 13.2 µM; in data set [6] it was over 200 µM; against CYP2B6, over 20 µM; against CYP2D6, over 20 µM; at CYP2C8 it was over 20 µM; on CYP2C19, 13.5 µM. In addition, the IC50 with HepG2 cells (Homo sapiens, HepG2, 72 h) was 75 ± 26 µM. The IC50 at 10 min was over 20 µM against CYP3A4 (pH 7.4, probe midazolam) and over 20 µM against CYP3A4 (pH 7.4, probe testosterone). Also, in [7], the recovery at 4 h, 5 µM came out at 83.8%. Moreover, the fraction unbound at 4 h, 5 µM in data set [7] (Mean plasma fraction Bound) turned out to be 0.01; in [7] (Mean plasma fraction Unbound Fuplasma), 0.0098. Further, in the data set “in vitro” (Caco-2), the Papp A→B at 2 h, 10 µM stood at 22 ×10⁻⁶ cm/s. Further, the Papp B→A at 2 h, 10 µM in the data set “in vitro” (Caco-2) came out at 18 ×10⁻⁶ cm/s. Besides, the efflux ratio at 2 h, 10 µM in the data set “in vitro” (Caco-2) stood at 0.81. In “in vitro” (Caco-2, recovery), this compound displayed a recovery at 1 h, 10 μM of 57%. The compound also gave a recovery at 2 h, 10 μM in the data set “in vitro” (Caco-2, recovery) of 59%. Also, the “dQ/dt (rate of permeation), mean” value came out at 2.6E-04 in the data set on Caco-2 cells (A→B, assay duration 1 hr); 1.5E-04 with Caco-2 cells (A→B, assay duration 2 hr); 2.3E-04 in the data set on Caco-2 cells (B→A, assay duration 1 hr); 1.6E-04 in the data set on Caco-2 cells (B→A, assay duration 2 hr). Moreover, the recovery in the data set with Caco-2 cells (Caco-2, 1 h) is listed as 72%; with Caco-2 cells (Caco-2, 2 h), 65%. Besides, the half-life at 1 µM in data set [8] (liver microsomes) is 26 min. This compound also showed an intrinsic metabolic clearance (microsomal CLint) at 1 µM in data set [8] (microsomes) of 89 µL/min/mg. Moreover, the “MIC LepB-UE” value in data set [3] worked out at 41 ± 0.1 µM (≈ 8.83 µg/mL).

Values taken from article PMC9927457 (Microbiology Spectrum, 2023).
